Data as given in ChEMBL document CHEMBL4507262, “Data for DCP probe A-1596586” (2021).

Key:
[1] = target: Ephrin type-B receptor 3 (Homo sapiens) (UniProt P54753); settings: Compound concentration 1000.0 nM
[2] = target: T1, 5-hydroxytryptamine receptor 3A (Homo sapiens) (UniProt P46098); settings: Compound concentration 10.0 uM
T1 sequence (whole entry): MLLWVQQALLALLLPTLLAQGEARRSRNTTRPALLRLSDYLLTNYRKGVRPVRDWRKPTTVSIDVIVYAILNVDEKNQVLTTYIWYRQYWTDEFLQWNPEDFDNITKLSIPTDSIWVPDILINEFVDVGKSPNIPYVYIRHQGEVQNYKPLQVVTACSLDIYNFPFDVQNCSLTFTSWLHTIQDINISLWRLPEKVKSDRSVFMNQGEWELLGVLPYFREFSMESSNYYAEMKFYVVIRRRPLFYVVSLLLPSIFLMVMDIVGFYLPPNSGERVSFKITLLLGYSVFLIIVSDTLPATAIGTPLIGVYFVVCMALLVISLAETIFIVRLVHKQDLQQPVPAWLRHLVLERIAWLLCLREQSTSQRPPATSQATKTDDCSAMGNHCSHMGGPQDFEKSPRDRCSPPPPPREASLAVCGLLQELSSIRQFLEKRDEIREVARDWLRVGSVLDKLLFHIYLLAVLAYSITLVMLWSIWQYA

[3] = target: Serine/threonine-protein kinase Sgk1 (Homo sapiens) (UniProt O00141); settings: Compound concentration 1000.0 nM
[4] = target: Tyrosine-protein kinase ABL2 (Homo sapiens) (UniProt P42684); settings: Compound concentration 1000.0 nM
[5] = target: Beta-3 adrenergic receptor (Homo sapiens) (UniProt P13945); settings: Compound concentration 10.0 uM
Beta-3 adrenergic receptor (Homo sapiens), sequence (P13945 whole entry, looked up): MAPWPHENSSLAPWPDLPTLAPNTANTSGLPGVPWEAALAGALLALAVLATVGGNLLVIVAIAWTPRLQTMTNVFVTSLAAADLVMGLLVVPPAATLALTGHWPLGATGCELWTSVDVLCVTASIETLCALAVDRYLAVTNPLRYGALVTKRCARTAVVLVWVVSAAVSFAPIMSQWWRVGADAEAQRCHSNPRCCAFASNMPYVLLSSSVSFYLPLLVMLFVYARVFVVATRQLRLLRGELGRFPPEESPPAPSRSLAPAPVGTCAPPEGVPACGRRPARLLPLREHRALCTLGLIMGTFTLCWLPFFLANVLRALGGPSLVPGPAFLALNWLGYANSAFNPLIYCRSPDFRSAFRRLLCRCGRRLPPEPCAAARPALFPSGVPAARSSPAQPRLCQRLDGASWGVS

[6] = system: Proto-oncogene tyrosine-protein kinase receptor Ret (Homo sapiens), P07949 [V804M]; settings: Compound concentration 1000.0 nM
[7] = target: Serine/threonine-protein kinase TBK1 (Homo sapiens) (UniProt Q9UHD2); settings: Compound concentration 1000.0 nM
[8] = target: Serine/threonine-protein kinase pim-3 (Homo sapiens) (UniProt Q86V86); settings: Compound concentration 1000.0 nM
[9] = target: Maternal embryonic leucine zipper kinase (Homo sapiens) (UniProt Q14680); settings: Compound concentration 1000.0 nM
[10] = target: TGF-beta receptor type-2 (Homo sapiens) (UniProt P37173); settings: Compound concentration 1000.0 nM
TGF-beta receptor type-2 (Homo sapiens), sequence (P37173 whole entry): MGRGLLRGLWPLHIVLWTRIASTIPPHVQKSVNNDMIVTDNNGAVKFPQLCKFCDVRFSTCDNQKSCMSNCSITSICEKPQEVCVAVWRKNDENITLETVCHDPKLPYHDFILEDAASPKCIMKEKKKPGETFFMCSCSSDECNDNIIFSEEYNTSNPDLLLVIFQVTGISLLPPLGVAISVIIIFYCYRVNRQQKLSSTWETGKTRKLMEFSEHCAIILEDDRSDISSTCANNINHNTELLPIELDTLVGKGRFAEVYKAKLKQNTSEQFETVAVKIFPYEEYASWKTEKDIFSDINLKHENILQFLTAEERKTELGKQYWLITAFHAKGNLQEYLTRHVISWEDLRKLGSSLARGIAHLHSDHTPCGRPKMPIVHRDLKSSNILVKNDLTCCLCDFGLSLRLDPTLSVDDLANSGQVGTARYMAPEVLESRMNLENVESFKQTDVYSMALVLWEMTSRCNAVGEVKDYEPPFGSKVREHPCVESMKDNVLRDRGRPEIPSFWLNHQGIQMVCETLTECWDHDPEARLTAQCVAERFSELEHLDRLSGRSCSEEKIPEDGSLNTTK

[11] = target: Homeodomain-interacting protein kinase 2 (Homo sapiens) (UniProt Q9H2X6); settings: Compound concentration 1000.0 nM
Homeodomain-interacting protein kinase 2 (Homo sapiens), sequence (Q9H2X6 whole entry, looked up): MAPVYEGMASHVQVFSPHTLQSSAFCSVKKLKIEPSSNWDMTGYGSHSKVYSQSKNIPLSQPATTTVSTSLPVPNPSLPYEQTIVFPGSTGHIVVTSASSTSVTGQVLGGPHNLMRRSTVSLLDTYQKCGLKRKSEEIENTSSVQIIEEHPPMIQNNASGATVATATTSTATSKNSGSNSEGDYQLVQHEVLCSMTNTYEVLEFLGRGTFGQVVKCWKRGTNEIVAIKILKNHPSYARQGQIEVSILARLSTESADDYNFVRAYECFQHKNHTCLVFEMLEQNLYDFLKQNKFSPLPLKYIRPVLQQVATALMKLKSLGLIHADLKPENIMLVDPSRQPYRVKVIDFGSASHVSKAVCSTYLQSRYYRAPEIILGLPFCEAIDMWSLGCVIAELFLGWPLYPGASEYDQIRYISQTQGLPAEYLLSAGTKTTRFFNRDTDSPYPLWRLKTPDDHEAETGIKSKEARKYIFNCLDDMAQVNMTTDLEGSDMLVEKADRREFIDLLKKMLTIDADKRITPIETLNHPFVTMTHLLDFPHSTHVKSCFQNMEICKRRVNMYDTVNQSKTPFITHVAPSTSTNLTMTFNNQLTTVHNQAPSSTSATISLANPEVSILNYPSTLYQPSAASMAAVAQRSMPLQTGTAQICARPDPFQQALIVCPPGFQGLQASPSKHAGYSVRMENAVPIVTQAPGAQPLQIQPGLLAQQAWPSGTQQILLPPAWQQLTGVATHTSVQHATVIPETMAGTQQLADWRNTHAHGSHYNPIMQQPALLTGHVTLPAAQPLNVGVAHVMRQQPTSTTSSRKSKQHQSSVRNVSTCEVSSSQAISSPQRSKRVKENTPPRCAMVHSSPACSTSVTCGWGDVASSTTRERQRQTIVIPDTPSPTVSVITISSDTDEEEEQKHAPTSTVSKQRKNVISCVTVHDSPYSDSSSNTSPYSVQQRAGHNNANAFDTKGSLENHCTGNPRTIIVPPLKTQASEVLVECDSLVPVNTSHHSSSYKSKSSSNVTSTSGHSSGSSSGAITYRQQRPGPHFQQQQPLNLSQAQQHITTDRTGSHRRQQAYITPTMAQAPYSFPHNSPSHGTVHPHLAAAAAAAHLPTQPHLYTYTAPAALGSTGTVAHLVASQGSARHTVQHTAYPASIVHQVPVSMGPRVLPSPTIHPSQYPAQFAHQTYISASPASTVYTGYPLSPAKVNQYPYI

[12] = GPCRScan assay: inhibition of GABA/PBR; set-up: species or system Rattus norvegicus; radioligand conc. used [nm] 0.3 – 2.0, parental cells brain tissue
[13] = target: Homeodomain-interacting protein kinase 1 (Homo sapiens) (UniProt Q86Z02); settings: Compound concentration 1000.0 nM
Homeodomain-interacting protein kinase 1 (Homo sapiens), sequence (Q86Z02 whole entry, looked up): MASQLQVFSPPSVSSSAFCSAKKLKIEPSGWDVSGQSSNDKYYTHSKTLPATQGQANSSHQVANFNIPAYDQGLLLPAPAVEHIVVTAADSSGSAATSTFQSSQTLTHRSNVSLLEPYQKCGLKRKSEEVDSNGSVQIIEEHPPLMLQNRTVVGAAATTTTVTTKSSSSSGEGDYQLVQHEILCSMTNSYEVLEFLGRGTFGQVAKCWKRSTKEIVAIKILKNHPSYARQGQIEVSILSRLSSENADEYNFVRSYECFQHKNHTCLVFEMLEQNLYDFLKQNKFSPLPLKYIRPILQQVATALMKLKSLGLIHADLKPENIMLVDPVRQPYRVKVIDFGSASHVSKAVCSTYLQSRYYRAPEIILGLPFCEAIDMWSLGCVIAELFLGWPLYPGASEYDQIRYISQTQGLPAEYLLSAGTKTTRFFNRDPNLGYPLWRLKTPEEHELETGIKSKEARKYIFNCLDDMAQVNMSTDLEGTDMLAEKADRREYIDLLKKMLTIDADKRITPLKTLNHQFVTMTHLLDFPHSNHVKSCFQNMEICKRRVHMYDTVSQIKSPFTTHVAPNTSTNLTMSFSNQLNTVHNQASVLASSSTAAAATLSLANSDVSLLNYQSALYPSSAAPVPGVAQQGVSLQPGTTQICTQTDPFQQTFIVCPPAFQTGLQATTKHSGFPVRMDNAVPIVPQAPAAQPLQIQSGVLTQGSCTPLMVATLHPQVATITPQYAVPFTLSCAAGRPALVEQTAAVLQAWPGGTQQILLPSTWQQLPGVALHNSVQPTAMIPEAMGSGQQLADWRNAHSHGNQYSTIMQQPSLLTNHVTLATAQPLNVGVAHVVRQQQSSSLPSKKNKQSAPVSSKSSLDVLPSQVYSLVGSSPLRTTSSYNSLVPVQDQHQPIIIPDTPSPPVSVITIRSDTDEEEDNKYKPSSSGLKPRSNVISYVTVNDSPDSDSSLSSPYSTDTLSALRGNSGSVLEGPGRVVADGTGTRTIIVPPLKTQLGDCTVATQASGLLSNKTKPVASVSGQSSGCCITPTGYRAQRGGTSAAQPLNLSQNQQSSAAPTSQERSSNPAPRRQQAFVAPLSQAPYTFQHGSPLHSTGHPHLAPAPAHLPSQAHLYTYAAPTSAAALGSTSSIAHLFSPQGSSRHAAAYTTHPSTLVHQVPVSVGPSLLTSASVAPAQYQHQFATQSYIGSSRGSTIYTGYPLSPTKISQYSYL

[14] = target: Mitogen-activated protein kinase kinase kinase kinase 3 (Homo sapiens) (UniProt Q8IVH8); settings: Compound concentration 1000.0 nM
[15] = system: Phosphatidylinositol 4,5-bisphosphate 3-kinase catalytic subunit alpha isoform (Homo sapiens), P42336 [E542K]; settings: Compound concentration 1000.0 nM
[16] = target: MAO-B (amine oxidase [flavin-containing] B) (Homo sapiens, UniProt P27338); experiment: MAO-B (h) recombinant enzyme Eurofins-Cerep enzyme and uptake assay; set-up: incubation time 60 min, incubation temperature 37°C, substrate/stimulus/tracer D-Luciferin derivative (4 µM); settings: probe D-Luciferin derivative (4 µM), compound concentration 10 uM, read-out: % Inhibition of Control Values (Mean n=2)
[17] = target: Calcium/calmodulin-dependent protein kinase type 1D (Homo sapiens) (UniProt Q8IU85); settings: Compound concentration 1000.0 nM
[18] = target: Mitogen-activated protein kinase kinase kinase 9 (Homo sapiens) (UniProt P80192); settings: Compound concentration 1000.0 nM
[19] = system: Tyrosine-protein kinase ABL1 (Homo sapiens), P00519 [Y253F]; settings: Compound concentration 1000.0 nM
[20] = target: cAMP-dependent protein kinase catalytic subunit beta (Homo sapiens) (UniProt P22694); settings: Compound concentration 1000.0 nM
[21] = target: Serine/threonine-protein kinase D2 (Homo sapiens) (UniProt Q9BZL6); settings: Compound concentration 1000.0 nM
[22] = target: Serine/threonine-protein kinase WNK3 (Homo sapiens) (UniProt Q9BYP7); settings: Compound concentration 1000.0 nM
[23] = target: Inhibitor of nuclear factor kappa-B kinase subunit beta (Homo sapiens) (UniProt O14920); settings: Compound concentration 1000.0 nM
[24] = target: Translocator protein (Rattus norvegicus) (UniProt P16257); experiment: BZD (peripheral) Eurofins-Cerep binding assay; set-up: ligand concentration 0.2 nM; settings: filed as antagonist, Compound concentration 10.0 uM
[25] = target: Ephrin type-A receptor 2 (Homo sapiens) (UniProt P29317); settings: Compound concentration 1000.0 nM
[26] = target: Insulin receptor (Homo sapiens) (UniProt P06213); settings: Compound concentration 1000.0 nM
Insulin receptor (Homo sapiens), sequence (P06213 28-758 limits assumed): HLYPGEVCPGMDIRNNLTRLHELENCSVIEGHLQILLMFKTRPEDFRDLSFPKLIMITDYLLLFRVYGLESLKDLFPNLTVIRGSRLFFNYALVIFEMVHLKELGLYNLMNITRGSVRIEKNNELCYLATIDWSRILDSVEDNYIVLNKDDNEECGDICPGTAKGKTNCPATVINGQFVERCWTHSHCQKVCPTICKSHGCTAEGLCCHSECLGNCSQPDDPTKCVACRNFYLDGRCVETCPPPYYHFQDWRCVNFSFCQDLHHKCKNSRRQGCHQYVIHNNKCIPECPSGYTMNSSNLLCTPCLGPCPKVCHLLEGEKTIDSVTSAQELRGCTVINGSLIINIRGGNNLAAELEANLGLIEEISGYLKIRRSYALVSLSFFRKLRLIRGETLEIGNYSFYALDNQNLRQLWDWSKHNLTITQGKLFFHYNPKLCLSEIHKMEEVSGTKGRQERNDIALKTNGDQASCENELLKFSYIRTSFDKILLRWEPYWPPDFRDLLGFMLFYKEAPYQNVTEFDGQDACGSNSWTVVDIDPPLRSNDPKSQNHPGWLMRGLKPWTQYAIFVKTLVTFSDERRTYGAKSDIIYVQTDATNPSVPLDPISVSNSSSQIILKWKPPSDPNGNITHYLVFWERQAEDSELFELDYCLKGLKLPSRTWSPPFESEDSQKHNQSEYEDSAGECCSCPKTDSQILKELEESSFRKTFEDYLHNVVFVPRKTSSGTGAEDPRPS
Insulin receptor (Homo sapiens), sequence (P06213 763-1382 limits assumed): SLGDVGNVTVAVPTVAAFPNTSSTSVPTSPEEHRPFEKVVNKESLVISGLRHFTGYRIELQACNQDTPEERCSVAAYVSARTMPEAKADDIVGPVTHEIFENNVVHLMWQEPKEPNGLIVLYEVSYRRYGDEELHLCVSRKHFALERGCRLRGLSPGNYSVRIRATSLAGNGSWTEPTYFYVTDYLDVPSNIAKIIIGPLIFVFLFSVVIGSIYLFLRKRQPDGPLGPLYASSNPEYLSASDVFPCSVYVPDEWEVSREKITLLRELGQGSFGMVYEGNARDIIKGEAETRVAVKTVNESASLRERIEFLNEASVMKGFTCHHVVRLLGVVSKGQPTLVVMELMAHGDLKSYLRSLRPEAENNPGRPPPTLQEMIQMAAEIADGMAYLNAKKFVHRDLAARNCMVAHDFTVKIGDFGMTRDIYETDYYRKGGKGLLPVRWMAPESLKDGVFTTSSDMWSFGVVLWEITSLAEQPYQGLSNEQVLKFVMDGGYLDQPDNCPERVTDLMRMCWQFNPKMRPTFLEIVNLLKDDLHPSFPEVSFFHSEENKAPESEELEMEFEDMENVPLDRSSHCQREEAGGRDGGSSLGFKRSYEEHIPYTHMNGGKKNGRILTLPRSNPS

[27] = target: Ribosomal protein S6 kinase alpha-3 (Homo sapiens) (UniProt P51812); settings: Compound concentration 1000.0 nM
[28] = target: T2, Alpha-2A adrenergic receptor (Homo sapiens) (UniProt P08913); settings: Compound concentration 10.0 uM
T2 sequence (whole entry): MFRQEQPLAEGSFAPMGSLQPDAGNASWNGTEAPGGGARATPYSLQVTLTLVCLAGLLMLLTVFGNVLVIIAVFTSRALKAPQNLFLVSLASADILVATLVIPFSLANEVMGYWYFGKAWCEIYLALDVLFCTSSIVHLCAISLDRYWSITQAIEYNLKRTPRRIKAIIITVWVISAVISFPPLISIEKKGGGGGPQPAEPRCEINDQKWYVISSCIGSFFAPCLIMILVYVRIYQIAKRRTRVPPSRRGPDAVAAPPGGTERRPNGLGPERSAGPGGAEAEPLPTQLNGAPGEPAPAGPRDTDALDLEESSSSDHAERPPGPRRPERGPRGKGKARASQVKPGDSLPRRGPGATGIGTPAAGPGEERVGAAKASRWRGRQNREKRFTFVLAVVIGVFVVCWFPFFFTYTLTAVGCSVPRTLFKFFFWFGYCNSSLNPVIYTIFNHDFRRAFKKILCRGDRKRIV

[29] = target: RAF proto-oncogene serine/threonine-protein kinase (Homo sapiens) (UniProt P04049); settings: Compound concentration 1000.0 nM
[30] = target: Phosphatidylinositol 4-phosphate 5-kinase type-1 gamma (Homo sapiens) (UniProt O60331); settings: Compound concentration 1000.0 nM
[31] = system: ALK tyrosine kinase receptor (Homo sapiens), Q9UM73 [L1196M]; settings: Compound concentration 1000.0 nM

| SMILES | residual activity [1] | inhibition [2] | residual activity [3] | residual activity [4] | inhibition [5] | residual activity [6] | residual activity [7] | residual activity [8] | residual activity [9] | residual activity [10] | residual activity [11] | Ki [12] | pKi [12] | residual activity [13] | residual activity [14] | residual activity [15] | inhibition at 60 min, 10 µM [16] | residual activity [17] | residual activity [18] | residual activity [19] | further results |
| --- | --- | --- | --- | --- | --- | --- | --- | --- | --- | --- | --- | --- | --- | --- | --- | --- | --- | --- | --- | --- | --- |
| COc1ccc2c(c1)O[C@H](c1ccc(OC)c(OC)c1)C[C@@H]2NC(=O)C1(c2ccc3c(c2)OC(F)(F)O3)CC1 [A-1596584] | 91% | -3.53% | 100% | 100% | -7.53% | 100% | 99% | 100% | 78% | 100% | 98% | 218 nM | 6.66 | 87% | 100% | 95% | 16.7% | 100% | 93% | 93% | residual activity [20]: 99%; residual activity [21]: 100%; residual activity [22]: 100%; residual activity [23]: 97%; % Inhibition of Control Specific Binding (Mean n=2) [24]: 79.1%; residual activity [25]: 94%; residual activity [26]: 82%; residual activity [27]: 74%; inhibition [28]: 14.9%; residual activity [29]: 100%; residual activity [30]: 100%; residual activity [31]: 100% |
| COc1ccc2c(c1)O[C@@H](c1ccc(OC)c(OC)c1)C[C@H]2NC(=O)C1(c2ccc3c(c2)OC(F)(F)O3)CC1 [A-1596586] | 90% | -1.13% | 85% | 89% | 3.77% | 95% | 86% | 91% | 65% | 87% | 96% | 19.6 nM | 7.71 | 86% | 90% | 79% | 11.9% | 94% | 100% | 78% | residual activity [20]: 95%; residual activity [21]: 100%; residual activity [22]: 100%; residual activity [23]: 95%; % Inhibition of Control Specific Binding (Mean n=2) [24]: 95.9%; residual activity [25]: 95%; residual activity [26]: 79%; residual activity [27]: 81%; inhibition [28]: 17.6%; residual activity [29]: 100%; residual activity [30]: 92%; residual activity [31]: 90% |
